How the values were obtained:
[1] = test system: MDA-MB-231; experiment: Antiproliferative activity against human MDA-MB-231 cells assessed as inhibition of cell growth incubated for 72 hrs by CellTiter-Glo luminescent cell viability assay; format: functional, cell-based; conditions: MDA-MB-231, 72 h
[2] = target: T1, N-lysine methyltransferase SMYD2 (Homo sapiens, UniProt Q9NRG4); experiment: Inhibition of SMYD2 (unknown origin) using 3H-SAM as substrate incubated for 1 hr by filter binding method
[3] = test system: Ca-Ski; experiment: cells; format: functional, cell-based; conditions: Homo sapiens, 72 h
Description: Antiproliferative activity against human Ca-Ski cells assessed as inhibition of cell growth incubated for 72 hrs by CellTiter-Glo luminescent cell viability assay

[4] = target: T1, N-lysine methyltransferase SMYD2; experiment: Inhibition of SMYD2 (unknown origin) assessed as residual activity at 10 uM using 3H-SAM as substrate incubated for 1 hr by filter binding method relative to control

T1 sequence (Q9NRG4 whole entry): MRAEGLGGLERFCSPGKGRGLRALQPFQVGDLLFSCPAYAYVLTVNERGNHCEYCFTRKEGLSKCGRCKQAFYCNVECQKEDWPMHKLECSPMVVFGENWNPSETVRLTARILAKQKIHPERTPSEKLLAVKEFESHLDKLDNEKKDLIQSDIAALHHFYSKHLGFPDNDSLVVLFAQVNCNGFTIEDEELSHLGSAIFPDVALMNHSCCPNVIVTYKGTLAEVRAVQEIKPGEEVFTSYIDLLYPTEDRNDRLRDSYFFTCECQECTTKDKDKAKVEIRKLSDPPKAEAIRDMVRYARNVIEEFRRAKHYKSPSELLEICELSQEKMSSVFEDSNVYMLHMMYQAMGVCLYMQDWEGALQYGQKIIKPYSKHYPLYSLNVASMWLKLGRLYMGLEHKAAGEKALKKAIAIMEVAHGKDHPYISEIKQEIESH

O=C1C=CC2(C=C1)OCC(Cc1cc(C(F)(F)F)cc(C(F)(F)F)c1)C(=O)N2c1ccccc1 (configuration not stated)
IC50 [1]: 1.64 µM | IC50 [2]: 18.5 µM | IC50 [3]: 0.879 µM

CC(C)N1C(=O)C(Cc2ccc([N+](=O)[O-])cc2)COC12C=CC(=O)C=C2 (configuration not stated)
IC50 [2]: > 20 µM | Activity [4]: 66.7%

CN1C(=O)C(CCNc2cc(F)cc(C(F)(F)F)c2)COC12C=CC(=O)C=C2 (configuration not stated)
IC50 [2]: 7.52 µM | Activity [4]: 53.5%

C=CCC1COC2(C=CC(=O)C=C2)N(C(C)C)C1=O (configuration not stated)
IC50 [2]: > 20 µM | Activity [4]: 101%

CC(C)N1C(=O)C(Cc2ccc(C#N)cc2)COC12C=CC(=O)C=C2 (configuration not stated)
IC50 [2]: > 20 µM | Activity [4]: 80.7%

CC(C)N1C(=O)C(Cc2c(F)cccc2C(F)(F)F)COC12C=CC(=O)C=C2 (configuration not stated)
IC50 [2]: > 20 µM | Activity [4]: 47.2%

N#Cc1cccc(-n2cc(CC3COC4(C=CC(=O)C=C4)N(c4ccccc4)C3=O)nn2)c1 (configuration not stated)
IC50 [2]: > 30 µM

CN1C(=O)C(CCO[Si](C)(C)C(C)(C)C)COC12C=CC(=O)C=C2 (configuration not stated)
IC50 [2]: > 30 µM

O=C1COc2c([C@@H](O)CNCCN(C(=O)CCNCCc3ccc(Cl)c(Cl)c3)C3CCCCC3)ccc(O)c2N1
IC50 [2]: 0.003 µM

CN1C(=O)C(CCNc2ccccc2)COC12C=CC(=O)C=C2 (configuration not stated)
IC50 [2]: > 20 µM | Activity [4]: 45.1%

CC1COC2(C=CC(=O)C=C2)N(C(C)C)C1=O (configuration not stated)
IC50 [2]: > 20 µM | Activity [4]: 96.5%

CN[C@@H]1C[C@H]2O[C@@](C)([C@@H]1OC)n1c3ccccc3c3c4c(c5c6ccccc6n2c5c31)C(=O)NC4 [STAUROSPORINE]
IC50 [1]: 0.000858 µM

CC(C)N1C(=O)C(Cc2ccc(F)cc2)COC12C=CC(=O)C=C2 (configuration not stated)
IC50 [2]: > 20 µM | Activity [4]: 36%

CN1C(=O)C(CCNc2ccc(Cl)c(Cl)c2)COC12C=CC(=O)C=C2 (configuration not stated)
IC50 [2]: 3.82 µM | Activity [4]: 12.6%

CN1C(=O)C(CCNc2cnc3ccccc3c2)COC12C=CC(=O)C=C2 (configuration not stated)
IC50 [2]: > 20 µM | Activity [4]: 64.6%

CN1C(=O)C(CCNc2cccnc2)COC12C=CC(=O)C=C2 (configuration not stated)
IC50 [2]: > 20 µM | Activity [4]: 74.2%

CC(C)N1C(=O)C(CCO[Si](c2ccccc2)(c2ccccc2)C(C)(C)C)COC12C=CC(=O)C=C2 (configuration not stated)
IC50 [2]: 0.399 µM

CC(C)N1C(=O)C(Cc2ccc(Cl)cc2)COC12C=CC(=O)C=C2 (configuration not stated)
IC50 [2]: > 20 µM | Activity [4]: 41.4%

— ChEMBL document CHEMBL5143511, “Positioning of an unprecedented 1,5-oxaza spiroquinone scaffold into SMYD2 inhibitors in epigenetic space” (Eur J Med Chem, 2022)
